Earlier results on one compound are cited in patent CN104013603A, “一种烟碱缓释贴剂” (Shanghai Tobacco Group Co Ltd, priority 2014, dated 2014).

The structures appear in SMILES notation.

The conditions of series [1]: background statement.
The conditions of series [2]: background statement. This is another data set of the same source.

For the compound `CN1CCC[C@H]1c1cccnc1` [尼古丁, (S)-3-(1-Methyl-2-pyrroli-dinyl)pyridine], the penetration into skin entry in series [1] was “可渗入皮肤”. Besides, the solubility result in series [2] is given as “可溶于水、乙醇、氯仿、乙醚、油类”.
